# Source: patent US20190375778A1, “ADENOSINE DERIVATIVES FOR USE IN THE TREATMENT OF CANCER” (NuCana plc, priority 2016, published 2019)
# Key:
# Type in all cases: cell-based
# [1] = test system: Lovo; experiment: MTT cytotoxicity assay, Lovo; conditions: Homo sapiens, 96 h compound exposure, read-out: absolute IC50, Lovo
# Excerpt: (§1) Lovo: cell line derived from a metastatic site in a patient with colon cancer MCF7: human oestrogen sensitive mammary epithelial cell line PC3: human prostate cancer cell line A549: cancerous lung tissue derived cells L1210: lymphoblast cell line derived from a mouse with lymphocytic leukaemia FM3A: mammary carcinoma murine cells CEM: human T-lymphoblasts, derived from the blood of a patient with acute lymphoblastic leukaemia HeLa: epithelial cells from a patient with cervical adenocarcinoma
# (§2) Anti-tumour evaluation in MCF7, LoVo, A549 and PC3 cell lines was performed by MTT assay. Compounds were prepared as 0.1-100 mM stock solutions dissolved in DMSO and stored at −20° C. Cells were seeded into 96-well microtitre plates at a density of 5×10^3 cells per well and allowed 24 hours to adhere. Decimal compound dilutions were prepared in medium immediately prior to each assay (final concentration 0.1-100 μM). Experimental medium was DMEM+10% FCS (PC3 and Lovo) or RPMI+10% heat inactivated FCS (A549 and MCF7). Following 96 h compound exposure at 37° C., 5% CO2, MTT reagent (Sigma Aldrich) was added to each well (final concentration 0.5 mg/ml). Incubation at 37° C. for 4 h allowed reduction of MTT by viable cells to an insoluble formazan product. MTT was removed and formazan solubilised by addition of 10% Triton X-100 in PBS. Absorbance was read on a Tecan Sunrise spectrophotometer at 540 nm as a measure of cell viability; thus inhibition relative to control was determined (IC50).
# [2] = test system: A549; experiment: MTT cytotoxicity assay, A549; conditions: Homo sapiens, 96 h compound exposure, read-out: absolute IC50, A549
# Excerpt: as §1, §2
# [3] = test system: HL-60 cell line; experiment: Intracellular 8-Cl-ATP/ATP by LC-MS/MS, HL-60; conditions: for difference in intracellular accumulation of 8-Cl-ATP on inhibiting hENT1: HL-60, with NBTI
# Procedure: Cell lines with 3×10^6 cells/ml were used. Cells were treated with 1 μl of 20 μM of each 8-Cl-A, compound A, compound B and compound D and incubated for 2 hours at 37° C. with 5% CO2. After incubation, the cells were centrifuged (ambient, 1200 rpm, 5 minutes), the supernatant was removed, and the pellet was washed with lml of PBS and centrifuged (ambient, 1200 rpm, 5 minutes). The supernatant was removed, the pellet was reconstituted in 100 μl of PBS and 100 μl of 0.8M perchloric acid. This was then centrifuged (ambient, 1200 rpm, 5 minutes) and 180 μl of the supernatant was transferred to new tubes and stored at −80° C. until time of analysis.
# For inhibitor studies the cell lines were treated in the same way as described above but before treatment with drugs, a number of inhibitors were added: • 1) Nitrobenzylthioinosine (NBTI) (Sigma-Aldrich, St. Louis, Mo.) inhibits hENT1. • 2) A-134974 dihydrochloride hydrate (Sigma-Aldrich, St. Louis, Mo.) inhibits adenosine kinase. • 3) EHNA hydrochloride (Sigma-Aldrich, St. Louis, Mo.) inhibits adenosine deaminase.
# Cells were treated with 1 μl of 10 μM of each inhibitor and left for 5 minutes before adding the drug. The cells were then incubated for 2 hours at 37° C. with 5% CO2.
# The analytes were resolved using an ultra-performance liquid chromatography system (Accela UPLC, Thermo Scientific, UK) equipped with a Biobasic A×5 μm, 50×2.1 mm column (Thermo Electron Corporation, Murrieta, Calif., USA) and mobile phase consisting of a mixture of 10 mM NH4Ac in ACN/H2O (30:70 v/v), pH6.0 (A), and 1 mM NH4Ac in ACN/H2O (30:70 v/v), pH10.5 (B). The mobile phase gradient was employed, comprising: buffer A=95% at 0-0.5 minutes, from 95 to 0% over 1.25 minutes, held at 0% for 1.75 minutes, from 0-95% over 0.1 minutes, ending with 95% for 2.9 minutes, all at a flow rate of 500 μl/min.
# For compounds detection a triple stage quadrupole Vantage mass spectrometry system (Thermo Scientific, UK) equipped with an electrospray ion source was used. Samples were analysed in the Multiple Reaction Monitoring, negative ion modes at spray voltage 3000V.
# The dose-response curves of cytotoxicity of the drugs was determined using non-linear regression analysis of percentage cell viability versus concentration and EC50 values were obtained. The intracellular assay was conducted in five repeats for each condition. Intracellular assay was determined using paired T test (two-tailed) analysis of 8-ChloroATP/ATP concentration and p values were obtained. Drug stability in human plasma was determined using two-way ANOVA analysis. For all the analysis, Prism Software program (GraphPad Software) was used.
# [4] = test system: CAL27; experiment: Viability assay, CAL27
# Procedure: (§3) In vitro viability assay were performed to assess the effects of compounds on cell viability in selected cell lines over ˜72 hrs using the CellTiterGlo (CTG, Promega-G7573) assay. The tests were performed in duplicates with treatment of compounds at 9 points, 3.16 folds titration in 96 well plates over ˜72 hrs. The compound starting concentrations were 198 μM. Cell viability assay using CellTiterGlo in 96-well plate were performed. Compound treatment 72 hrs, standard growth conditions, duplicates. Compounds were dissolved to 40 mM with thawed […]. Compounds were serially diluted at 3.16 fold in thawed DMSO, and warmed to 37° C. before being dissolved in media (2 μl+200 μl). After compounds were dissolved in media, media containing compounds were warmed to 37° C. in incubator and then compounds in media were added to cell plates (50 μl+50 μl) in duplicates. The compounds' final concentrations were from […] to 19.9 nM. All compound solubilities were checked and recorded again, then the plates were transferred to CO2 tissue culture incubator immediately and incubated for 3 days. DMSO final concentration is 0.5%.
# [5] = test system: T24/83; experiment: Viability assay, T24/83
# Procedure: as §3
structure (smiles),measurement,setting,value
"Nc1ncnc2c1nc(Cl)n2[C@@H]1O[C@H](COP(=O)(NCC(=O)OC2CCCCC2)Oc2ccccc2)[C@@H](O)[C@H]1O (mixture of isomers) [Compound A, Cyclohexyl 2-(((((2R,3S,4R,5R)-5-(6-amino-8-chloro-9H-purin-9-yl)-3,4-dihydroxy-tetrahydrofuran-2-yl)methoxy)(phenoxy)phosphoryl)amino)acetate]",IC50,[1],100 to 5000 nM
same,IC50,[2],15 to 100 µM
same,difference in intracellular accumulation of 8-Cl-ATP on blocking adenosine kinase,"[3]; HL-60, with A-134974",did not produce significant difference
same,difference in intracellular accumulation of 8-Cl-ATP on inhibiting hENT1,[3],did not produce significant difference
"C[C@H](NP(=O)(OC[C@H]1O[C@@H](n2c(Cl)nc3c(N)ncnc32)C(O)C1O)Oc1cccc2ccccc12)C(=O)OCc1ccccc1 (stereo partly drawn) [Compound D, (2S)-Benzyl 2-(((((2R,3S,4R,5R)-5-(6-amino-8-chloro-9H-purin-9-yl)-3,4-dihydroxy-tetrahydrofuran-2-yl)methoxynaphthalene-1-yloxy)phosphoryl)amino)propanoate]",difference in intracellular accumulation of 8-Cl-ATP on inhibiting hENT1,[3],did not produce significant difference
"Nc1ncnc2c1nc(Cl)n2[C@@H]1O[C@H](CO)[C@@H](O)[C@H]1O [8-chloroadenosine, 8-Chloroadenosine, reference compound]",IC50,[1],100 to 5000 nM
same,IC50,[2],0.1 to 5 µM
same,Top in. % CAL27,[4],76.5%
same,EC50,"[4]; Homo sapiens, CAL-27, read-out: Ab EC50 (μM) CAL27",1.73 µM
same,Top in. % T24/83,[5],77.5%
same,EC50,"[5]; T24/83, read-out: Ab EC50 (μM) T24/83",2 µM
same,8-Cl-ATP/ATP ratio after inhibiting adenosine kinase,"[3]; HL-60, with A-134974",almost zero
"CC(C)C[C@H](NP(=O)(OC[C@H]1O[C@@H](n2c(Cl)nc3c(N)ncnc32)C(O)C1O)Oc1ccccc1)C(=O)OCc1ccccc1 (stereo partly drawn) [V, 5′-([(Benzyloxy-L-leucin-N-yl)-phenyl]-phosphatyl) 8-chloroadenosine]",IC50,[1],100 to 5000 nM
same,IC50,[2],0.1 to 5 µM
"C[C@H](NP(=O)(OC[C@H]1O[C@@H](n2c(Cl)nc3c(N)ncnc32)[C@H](O)[C@@H]1O)Oc1ccccc1)C(=O)OCc1ccccc1 (mixture of isomers) [C, (2S)-Benzyl 2-(((((2R,3S,4R,5R)-5-(6-amino-8-chloro-9H-purin-9-yl)-3,4-dihydroxy-tetrahydrofuran-2-yl)methoxy)(phenoxy)phosphoryl)amino)propanoate]",IC50,[1],100 to 5000 nM
same,IC50,[2],15 to 100 µM
"Nc1ncnc2c1nc(Cl)n2[C@@H]1O[C@H](COP(=O)(NCC(=O)OCc2ccccc2)Oc2ccccc2)[C@@H](O)[C@H]1O (mixture of isomers) [Compound B, Benzyl 2-(((((2R,3S,4R,5R)-5-(6-amino-8-chloro-9H-purin-9-yl)-3,4-dihydroxytetra-hydrofuran-2-yl)methoxy)(phenoxy)phosphoryl)amino)acetate]",IC50,[1],100 to 5000 nM
same,IC50,[2],5 to 15 µM
same,difference in intracellular accumulation of 8-Cl-ATP on inhibiting hENT1,[3],did not produce significant difference
